Measurements as given in US6498125B2, “Pyridine ketones useful as herbicides” (Syngenta Participations AG, priority 1998, dated 2002).

Legend:
[1] = tested on: Kochia; assay: Example B4: post-emergence action, 250 g/ha; format: in vivo; conditions: 250 g of AS/ha, sprayed in the 2-3-leaf stage, 0.2% X77, 3 weeks, nine-level scale 1=complete damage, 9=no effect
Experimental: (§1) Monocotyledonous and dicotyledonous test plants are sown in pots in standard soil. In the 2-3- leaf stage of the test plants, the test substances are sprayed on (500 l of spray liquor/ha) as an aqueous suspension, prepared from a wettable powder WP10 according to the desired dosage (250 g of a.i./ha). 0.2% of X77 is added as wetting agent to the spray liquor. The test plants are then grown under optimum conditions in a greenhouse.
(§2) After a test period of 3 weeks, the test is evaluated with a nine4evel scale of ratings (1=complete damage, 9=no effect). Ratings of 1 to 4 (in particular 1 to 3) mean good to very good herbicidal action, 7-9 mean good tolerance.

[2] = tested on: Stellaria; assay: Example B4: post-emergence action, 250 g/ha; format: in vivo; conditions: 250 g of AS/ha, sprayed in the 2-3-leaf stage, 0.2% X77, 3 weeks, nine-level scale 1=complete damage, 9=no effect
Experimental: as §1, §2

[3] = tested on: Chenopodium; assay: Example B4: post-emergence action, 250 g/ha; format: in vivo; conditions: 250 g of AS/ha, sprayed in the 2-3-leaf stage, 0.2% X77, 3 weeks, nine-level scale 1=complete damage, 9=no effect
Experimental: as §1, §2

[4] = tested on: Sida; assay: Example B4: post-emergence action, 250 g/ha; format: in vivo; conditions: 250 g of AS/ha, sprayed in the 2-3-leaf stage, 0.2% X77, 3 weeks, nine-level scale 1=complete damage, 9=no effect
Experimental: as §1, §2

[5] = tested on: Amaranthus; assay: Example B4: post-emergence action, 250 g/ha; format: in vivo; conditions: 250 g of AS/ha, sprayed in the 2-3-leaf stage, 0.2% X77, 3 weeks, nine-level scale 1=complete damage, 9=no effect
Experimental: as §1, §2

[6] = tested on: Abutilon; assay: Example B4: post-emergence action, 250 g/ha; format: in vivo; conditions: 250 g of AS/ha, sprayed in the 2-3-leaf stage, 0.2% X77, 3 weeks, nine-level scale 1=complete damage, 9=no effect
Experimental: as §1, §2

[7] = tested on: Kochia; assay: Example B3: pre-emergence action, 250 g/ha; format: in vivo; conditions: 250 g of AS/ha, sprayed immediately after sowing, 3 weeks, nine-level scale 1=complete damage, 9=no effect
Experimental: (§3) Monocotyledonous and dicotyledonous test plants are sown in pots in standard soil. Immediately after sowing, the test substances are sprayed on (500 l of spray liquorlha) as an aqueous suspension, prepared from a wettable powder WP10 corresponding to the desired dosage (250 g of a.i./ha).
(§4) The test plants are then grown under optimum conditions in a greenhouse. After a test period of 3 weeks, the test is evaluated with a nine -evel scale of ratings (1=complete damage, 9=no effect). Ratings of 1 to 4 (in particular 1 to 3) mean good to very good herbicidal action, 7-9 mean good tolerance.

[8] = tested on: Stellaria; assay: Example B3: pre-emergence action, 250 g/ha; format: in vivo; conditions: 250 g of AS/ha, sprayed immediately after sowing, 3 weeks, nine-level scale 1=complete damage, 9=no effect
Experimental: as §3, §4

[9] = tested on: Chenopodium; assay: Example B3: pre-emergence action, 250 g/ha; format: in vivo; conditions: 250 g of AS/ha, sprayed immediately after sowing, 3 weeks, nine-level scale 1=complete damage, 9=no effect
Experimental: as §3, §4

[10] = tested on: Sida; assay: Example B3: pre-emergence action, 250 g/ha; format: in vivo; conditions: 250 g of AS/ha, sprayed immediately after sowing, 3 weeks, nine-level scale 1=complete damage, 9=no effect
Experimental: as §3, §4

[11] = tested on: Amaranthus; assay: Example B3: pre-emergence action, 250 g/ha; format: in vivo; conditions: 250 g of AS/ha, sprayed immediately after sowing, 3 weeks, nine-level scale 1=complete damage, 9=no effect
Experimental: as §3, §4

[12] = tested on: Abutilon; assay: Example B3: pre-emergence action, 250 g/ha; format: in vivo; conditions: 250 g of AS/ha, sprayed immediately after sowing, 3 weeks, nine-level scale 1=complete damage, 9=no effect
Experimental: as §3, §4

[13] = tested on: Monocotyledonous and dicotyledonous test plants; assay: Example B2: post-emergence herbicidal action, 2 kg of AS/ha; format: in vivo; set-up: key: 1 = complete damage, 9 = no effect; conditions: 4- to 6-leaf stage, about 18 days, scale 1-9; for post-emergence action rating, Avena: test plant Avena; for post-emergence action rating, Setaria: test plant Setaria; for post-emergence action rating, Sinapis: test plant Sinapis; for post-emergence action rating, Solanum: test plant Solanum; for post-emergence action rating, Stellaria: test plant Stellaria
In short: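 Greenhouse-grown mono- and dicot plants sprayed post-emergence at 4- to 6-leaf stage with aqueous suspension (from 25% wettable powder) or emulsion (from 25% emulsion concentrate), 2 kg AS/ha in 500 l water/ha. Rated after about 18 days on nine-level scale (1 = complete damage, 9 = no effect).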

[14] = tested on: Monocotyledonous and dicotyledonous test plants; assay: Example B1: pre-emergence herbicidal action, 2 kg of AS/ha; format: in vivo; conditions: 3 weeks, scale 1-9
In short: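 Pre-emergence test: test substances sprayed right after sowing in standard soil as aqueous suspension (25% wettable powder) or emulsion (25% emulsion concentrate) at 2 kg AS/ha in 500 l water/ha. Plants grown in greenhouse; rated after 3 weeks on a nine-level scale (1=complete damage, 9=no effect).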

SMILES	Post-emergence action: Kochia (rating) [1]	Post-emergence action: Stellaria (rating) [2]	Post-emergence action: Chenopodium (rating) [3]	Post-emergence action: Sida (rating) [4]	Post-emergence action: Amaranthus (rating) [5]	Post-emergence action: Abutilon (rating) [6]	Pre-emergence action: Kochia (rating) [7]	Pre-emergence action: Stellaria (rating) [8]	Pre-emergence action: Chenopodium (rating) [9]	Pre-emergence action: Sida (rating) [10]	Pre-emergence action: Amaranthus (rating) [11]	Pre-emergence action: Abutilon (rating) [12]	further results
O=C(C1=C(O)C2CCC(C2)C1=O)c1ccc(OCC(F)(F)F)nc1C(F)(F)F (stereo not drawn) [Compound 1.349]	2	3	2	2	2	2	4	5	1	2	3	1	
CCC(=O)NC1CC(=O)C(C(=O)c2ccc(C(F)(F)F)nc2C)=C(O)C1 (stereo not drawn) [Compound 6.006]													post-emergence action rating, Avena [13]: 2; post-emergence action rating, Setaria [13]: 5; post-emergence action rating, Sinapis [13]: 2; post-emergence action rating, Solanum [13]: 2; post-emergence action rating, Stellaria [13]: 2; melting point: 176 to 177 °C
CS(=O)(=O)c1ccc(C(=O)C2=C(O)C3CCC(C3)C2=O)c(C(F)(F)F)n1 (stereo not drawn) [Compound 1.339]	1	3	3	4	2	2	7	1	1	2	1	2	
CCSc1ccc(C(=O)C2=C(O)C3CCC(C3)C2=O)c(C(F)(F)F)n1 (stereo not drawn) [Compound 1.341]	4	4	3	5	2	5	9	1	1	4	9	3	
CC[S+]([O-])c1ccc(C(=O)C2=C(O)C3CCC(C3)C2=O)c(C(F)(F)F)n1 (stereo not drawn) [Compound 1.343]	3	3	2	9	2	3	9	5	1	3	4	1	
O=C(C1=C(O)C2CCC(C2)C1=O)c1ccc(Cl)nc1C(F)(F)F (stereo not drawn) [Compound 1.355]	3	3	2	2	2	2	1	2	1	2	1	1	
Cc1nc(C(F)(F)F)ccc1C(=O)C1=C(Cl)C2CCC(C2)C1=O (stereo not drawn) [Compound 1.398, 4-chloro-3-(2-methyl-6-trifluoromethyl-pyridine-3-carbonyl)bicyclo[3.2.1]oct-3-en-2-one]													pre-emergence action rating, Avena ([14]; test plant Avena): 2; pre-emergence action rating, Cyperus ([14]; test plant Cyperus): 1; pre-emergence action rating, Setaria ([14]; test plant Setaria): 1; pre-emergence action rating, Sinapis ([14]; test plant Sinapis): 1; pre-emergence action rating, Solanum ([14]; test plant Solanum): 1; pre-emergence action rating, Stellaria ([14]; test plant Stellaria): 1; post-emergence action rating, Avena [13]: 2; post-emergence action rating, Setaria [13]: 2; post-emergence action rating, Sinapis [13]: 1; post-emergence action rating, Solanum [13]: 2; post-emergence action rating, Stellaria [13]: 2; melting point: 137 to 138 °C
CSc1ccc(C(=O)C2=C(O)C3CCC(C3)C2=O)c(C(F)(F)F)n1 (stereo not drawn) [Compound 1.335]	2	3	2	2	2	3	5	7	1	2	2	1	
Cc1ccc(C(=O)C2=C(O)C3CCC(C3)C2=O)c(C(F)(F)F)n1 (stereo not drawn) [Compound 1.361]	2	3	2	2	2	2							
COc1ccc(C(=O)C2=C(O)C3CCC(C3)C2=O)c(C(F)(F)F)n1 (stereo not drawn) [Compound 1.347]	2	3	2	3	2	3	1	1	1	4	2	2	
C#CCOc1ccc(C(=O)C2=C(O)C3CCC(C3)C2=O)c(C(F)(F)F)n1 (stereo not drawn) [Compound 1.351]	3	3	3	3	2	5							
